In patent US10758468B2, “Solubilizer for cosmetic preparations” (Symrise AG, priority 2010, dated 2020):

Experiment: Assessment of turbidity (transparency) of compositions at production and after 3 months storage
Settings: water to 100; for Assessment of turbidity: Storage at 5° C. / Assessment of turbidity: Storage at 40° C.: after 3 months
[1] = 0.10 wt. % bisabolol, 2.00 Solubilizer U.53787M, 0.50 pentane-1,2-diol
[2] = 0.10 wt. % bisabolol, 2.00 Solubilizer U.53787M, 1.00 1,2-propylene glycol
[3] = 0.10 wt. % bisabolol, 2.00 Solubilizer U.53787M, 2.50 pentane-1,2-diol
[4] = 0.10 wt. % bisabolol, 2.00 Solubilizer U.53787M, 3.00 1,2-propylene glycol
[5] = 0.10 wt. % bisabolol, 2.00 Solubilizer U.53787M, 4.00 glycerol
[6] = 0.20 wt. % bisabolol, 2.00 Solubilizer A, 5.00 glycerol
[7] = 0.40 wt. % menthyl lactate, 2.00 Solubilizer U.53787M, 5.00 glycerol
[8] = 0.40 wt. % menthyl lactate, 2.00 Solubilizer U.53787M, 5.00 pentane-1,2-diol
[9] = 0.50 wt. % menthyl lactate, 2.00 Solubilizer B, 5.00 glycerol

Experimental: The transparency (clarity) of the compositions was determined after 3 months at the constant storage temperature stated in each case.

In the case of `CC(C)(C)C(=O)C(Oc1ccc(Cl)cc1)n1ccnc1` (stereo not shown) [Crinipan® AD, climbazole], the “Amount of organic substance incorporated with the composition remaining clear and stable” value (framework formulation: 2.00 wt. % Solubilizer U.53787M, 5.00 glycerol, production at 25°, storage 3 months at 5° C. and 40° C.) is reported as 0.10 wt. %.
For `CC(C)=CCC[C@](C)(O)C1CC=C(C)CC1` (stereo partly shown) [Bisabolol], the “Assessment of turbidity: Production at 25°” value (“Assessment … at 25°” for short) [1] was “clear”, the “Assessment … at 25°” value [2] was “clear” and the “Assessment … at 25°” value [3] was “clear”. For the same compound, the “Assessment … at 25°” value [4] was “clear”, the “Assessment … at 25°” value [5] was “clear” and the “Assessment … at 25°” value [6] was “clear”. For the same compound, the “Assessment of turbidity: Storage at 5° C.” value (from here on “Assessment … at 5° C.”) [1] was “clear”, the “Assessment of turbidity: Storage at 40° C.” value (“Assessment … at 40° C.” below) [1] was “clear” and the “Assessment … at 5° C.” value [2] was “clear”. For the same compound, the “Assessment … at 40° C.” value [2] was “clear”, the “Assessment … at 5° C.” value [3] was “clear” and the “Assessment … at 40° C.” value [3] was “clear”. For the same compound, the “Assessment … at 5° C.” value [4] was “clear”, the “Assessment … at 40° C.” value [4] was “clear” and the “Assessment … at 5° C.” value [5] was “clear”. For the same compound, the “Assessment … at 40° C.” value [5] was “clear”, the “Assessment … at 5° C.” value [6] was “clear” and the “Assessment … at 40° C.” value [6] was “clear”.
For `CC1CCC(C(C)C)C(OC(=O)C(C)O)C1` (stereo not shown) [Frescolat ® ML, menthyl lactate], the “Assessment … at 25°” value [7] was “clear”, the “Assessment … at 25°” value [8] was “clear” and the “Assessment … at 25°” value [9] was “clear”. The “Assessment … at 5° C.” value [7] was “clear”, the “Assessment … at 40° C.” value [7] was “clear” and the “Assessment … at 5° C.” value [8] was “clear”. The “Assessment … at 40° C.” value [8] was “clear”, the “Assessment … at 5° C.” value [9] was “clear” and the “Assessment … at 40° C.” value [9] was “clear”.
